A short description of experiment [1]: Compound was evaluated for beta-lactamase activity as a substrate.
The nature of experiment [2]: Compound was evaluated for the beta-lactamase activity as substrate expressed as ratio of kcat/Km.
Experiment [3] can be described thus: (§1) Compound was evaluated for the beta-lactamase activity as a substrate.
Experiment [4] in a line: Compound was evaluated for the beta-lactamase activity as a substrate expressed as ratio of kcat/Km.
Experiment [5] deals with Beta-lactamase (Enterobacter cloacae) (UniProt P05364). The experiment is described as §1.

The term Km denotes the substrate concentration at which the rate is half of its maximum.

Beta-lactamase (Enterobacter cloacae), sequence (P05364 21-381 limits assumed): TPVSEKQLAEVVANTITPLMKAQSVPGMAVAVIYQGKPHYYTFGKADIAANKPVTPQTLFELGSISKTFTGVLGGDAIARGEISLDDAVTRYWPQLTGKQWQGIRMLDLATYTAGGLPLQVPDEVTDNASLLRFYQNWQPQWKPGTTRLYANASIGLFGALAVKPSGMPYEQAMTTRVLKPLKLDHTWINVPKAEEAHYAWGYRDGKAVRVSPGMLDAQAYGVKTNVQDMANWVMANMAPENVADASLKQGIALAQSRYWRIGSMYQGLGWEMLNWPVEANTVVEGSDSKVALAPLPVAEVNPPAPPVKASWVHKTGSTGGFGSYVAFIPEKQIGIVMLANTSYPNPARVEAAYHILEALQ

For `C[C@@H](O)[C@H]1C(=O)N2C(C(=O)O)=C(SCCNC=N)C[C@H]12`, the Km in experiment [1] came out at 27 µM. Further, the Ratio in experiment [2] was found to be 1480 M⁻¹ s⁻¹. Further, the k cat in experiment [3] is 0.04 s⁻¹.
`CC1(C)S[C@@H]2CC(=O)N2[C@H]1C(=O)O`: the k cat/Km in experiment [4] worked out at 6.6 M⁻¹ s⁻¹.
For `C[C@@H](O)[C@@H]1C(=O)N2[C@@H]1SC(C)(C)[C@@H]2C(=O)O`, in experiment [5], the k2 came out at 3.7 s⁻¹. In addition, in experiment [3], the Km was found to be 1.6 µM, the Ks was 13.5 µM, the k3 was 0.5 s⁻¹ and the k cat worked out at 0.4 s⁻¹. The molecule further registered a k cat/Km in experiment [3] of 2.8 M⁻¹ s⁻¹.
On to `C[C@@H](O)[C@H]1C(=O)N2[C@@H]1SC(C)(C)[C@@H]2C(=O)O`, for which, in experiment [2], the k cat/Km turned out to be 27 M⁻¹ s⁻¹.
